Assay results as given in US20200138764A1, “METHODS AND DEVICES FOR ACTIVATING ADIPOSE TISSUE” (The Procter & Gamble Company, priority 2018, published 2020).

How the values were obtained:
[1] = tested on: adipocyte; experiment: In vivo browning study in lean mice: Fat % by image analysis of H&E stained tissue; design: species or system Mice (C57BJ/6); settings: mice, SC injection, Formula III one side and mirabegron other side; high and middle dosage merged; H&E images
Experimental: (§1) Mice (8-10 weeks old males C57BJ/6 strain) were obtained from a commercial vendor Charles River Laboratories. The animal study protocols were approved by the Institutional Animal Care and Use Committee, at the Procter & Gamble Company. Mice were acclimated to the facility for 14 days prior to initiating the study. From arrival, mice were housed in solid-bottom shoebox styled cages within room temperature of 22±2° C. with ad libitum access to water and regular rodent chow diet on a 12 h light/dark cycle. Mice were single housed and offered bedding and various enrichment options. The bedding and nesting material allowed the mice to thermoregulate to their desired level of comfort. Body weights were recorded at the beginning of the study, on each dosing day prior to dosing, and final weights were recorded at the end of the study. Overall food consumption, fecal output, and body appearance were monitored during cage side clinical observations but were not scientifically measured or tracked. During the dosing period, the animals were observed several times per day (for example, before and during injection, immediately to 30-min post injection, a few hours after injection, and end of work day).
[…] The injection was performed using a 25-27-gauge ½-⅝″ length needle via a subcutaneous (SC) injection near or into the inguinal fat pad region of the lower abdomen. Dosing was done twice a week injections over 3 weeks. Necropsy was done at week 4. […]
Segments of adipocyte and inter-cellular regions in a stained image were identified by Python […] package. […] The threshold between adipocyte and inter-cellular regions in a converted image was detected by the Otsu filter function of the […]. The detected value was adjusted by multiplying 1.1.
The ratio of adipocyte in an image was calculated from the pixel number of the segments—Adipocyte Pixel was divided by Total Pixel.
The significance of the difference in Adipocyte Ratio between treatment and control groups was assessed by the Negative Binomial Generalized Linear Mixed-Effects Model using glmer.nb function of R lme4 package. […]

[2] = tested on: fat tissue; experiment: qPCR biomarker analysis of fat tissue, in vivo; design: species or system Mice (C57BJ/6); settings: mouse fat tissue, SC injection twice a week over 3 weeks
Experimental: as §1
Three groups of animals were treated with mirabegron (i.e. positive control) (n=4), placebo (n=2) and Formula III (n=6) on the left side while the right side received placebo in all three groups. The injection was performed using a 25-27-gauge ½-⅝″ length needle via a subcutaneous (SC) injection near or into the inguinal fat pad region of the lower abdomen. Dosing was done twice a week injections over 3 weeks. Necropsy was done at week 4. Test materials were administered at room temperature and in a neutral pH range. Three days after last dosing animals were euthanized with CO2 inhalation, inguinal fat pads were harvested, and tissues were processed for histology and biomarker analysis.
The qPCR biomarker analysis was conducted from flash frozen fat tissue from mouse study described above. First, RNA was manually extracted with RNAdvance Tissue kit (Agencourt). RNA was extracted from flash frozen fat tissue according to manufactuer's directions. For example, 5 mm steel beads were placed in the freezer for approximately 15-20 minutes. Next, Qiagen Buffer RLT was cooled to 4° C. for 20 minutes and placed in a 96 well 1.5 mL tube rack for sample transfer. Isopropanol was added to Agencourt wash buffer. 100 mL aliquots of 70% ethanol in water were prepared. The RNA Tissue beads were allowed to warm to 22° C. (˜30 minutes), and then the beads were shaken vigorously and intermittently for at least 15-20 minutes. 1 stainless steel bead was added to a 2 mL round bottom tube stored on dry ice. The tissue sample was then transferred to the 2 mL round bottom tube.
The tube rack was placed on wet ice. Then, the tubes were transferred from dry ice to the rack in wet ice and 350 μL of cold buffer RLT were added to the tubes. The beads were beaten at 30 Hz for 2 minutes. After bead beating, samples were centrifuged for 2 minutes. The supernatant was transferred into 96 well deep well isolation plate.
80 μL of RNATissue beads were combined with 320 μL of isopropanol to create a Bind Buffer. This solution was prepared fresh for each isolation with any unused solution discarded.
400 μL of Bind Buffer was added to the to RLT mixture and slowly mixed. The solution was incubated at room temperature for 10 minutes. Special care was taken to avoid the formation of bubbles while tip mixing.
The mixture was placed on a magnet (96 well plate—Agencourt SPRIPlate) for 6-10 minutes. After the solution became clear, the supernatant was removed from each tube while the tubes remained on the magnet and the solution was discarded.
The tubes were removed from the magnet and the pellets were washed with 800 μL of the Isopropanol Wash Buffer ten times. […]

Nc1nc(CC(=O)Nc2ccc(CCNC[C@H](O)c3ccccc3)cc2)cs1 [Mirabegron, mirabegron]
Average Fat % (Adipocyte Pixel / Total Pixel) [1]: 94.43%
Average Fold vs Placebo: AdipoQ [2]: 13.7
Average Fold vs Placebo: Adrb3 [2]: 16.3
Average Fold vs Placebo: Cidea [2]: 39.7
Average Fold vs Placebo: Cox7a1 [2]: 27.8
Average Fold vs Placebo: Cox8b [2]: 38.6
Average Fold vs Placebo: Dio2 [2]: 8.3
Average Fold vs Placebo: Elovl3 [2]: 19.1
Average Fold vs Placebo: IL6 [2]: 3.3
Average Fold vs Placebo: Ppargc1 [2]: 12.0
Average Fold vs Placebo: Prdm16 [2]: 5.0
Average Fold vs Placebo: Tfap2a [2]: 15.2
Average Fold vs Placebo: UCP1 [2]: 170.3
